Measurements reported in EP1202975B1, “SUBSTITUTED POLYCYCLIC ARYL AND HETEROARYL PYRAZINONES USEFUL FOR SELECTIVE INHIBITION OF THE COAGULATION CASCADE” (Pharmacia Corporation, priority 1999, dated 2000).
Read-outs that look alike come from different tables or passages of the source.

Molecular target: T1, TF-VIIa (Homo sapiens, UniProt P08709)
T1 construct: 2nM recombinant human factor VIIa; purchased American Diagnostica, Greenwich CT; host or cells: soluble TF made in house in E. coli
Assay: TF-VIIa Assay
Assay type: biochemical

[1] = cells given as a plain number (IC50); read-out: IC50 or % Inhibition TF-VIIa (30 µM)
[2] = read-out: IC50 or % Inhibition TF-VIIa (30 µM); cells given as a plain number (IC50)

T1 sequence (P08709 213-466 limits assumed): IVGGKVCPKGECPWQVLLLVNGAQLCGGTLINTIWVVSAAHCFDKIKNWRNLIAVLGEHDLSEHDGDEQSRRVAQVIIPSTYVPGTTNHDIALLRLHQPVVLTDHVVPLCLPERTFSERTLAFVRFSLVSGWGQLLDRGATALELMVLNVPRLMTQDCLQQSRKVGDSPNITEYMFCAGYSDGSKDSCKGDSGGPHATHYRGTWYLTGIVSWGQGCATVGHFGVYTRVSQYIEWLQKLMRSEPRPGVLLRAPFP
T1 sequence (P08709 61-212 limits assumed): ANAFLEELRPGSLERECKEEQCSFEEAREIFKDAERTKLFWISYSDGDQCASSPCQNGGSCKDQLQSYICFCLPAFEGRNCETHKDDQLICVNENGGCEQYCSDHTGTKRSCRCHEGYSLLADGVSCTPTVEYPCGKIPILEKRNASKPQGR
T1 sequence (P13726 33-251 partner limits assumed): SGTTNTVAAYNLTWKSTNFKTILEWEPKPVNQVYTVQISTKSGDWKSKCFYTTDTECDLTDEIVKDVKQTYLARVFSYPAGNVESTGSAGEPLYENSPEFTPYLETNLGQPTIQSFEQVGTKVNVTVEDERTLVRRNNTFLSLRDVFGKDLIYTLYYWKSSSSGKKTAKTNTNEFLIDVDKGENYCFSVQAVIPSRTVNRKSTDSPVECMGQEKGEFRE

## N=C(N)c1ccc(CNC(=O)Cn2c(-c3ccccc3)c(Cl)nc(NCCc3cccc(Cl)c3)c2=O)cc1 [1471-14]
[1]
  IC50: 0.18 µM

## N=C(N)c1ccc(CNC(=O)Cn2c(-c3ccc(Cl)cc3)c(Cl)nc(NCc3ccccc3)c2=O)cc1 [1471-17]
[2]
  IC50: 11 µM

## N=C(N)c1ccc(CNC(=O)Cn2c(-c3ccc(Cl)cc3)c(Cl)nc(NCCc3ccncc3)c2=O)cc1 [1471-21]
[2]
  IC50: 8.18 µM

## N=C(N)c1ccc(CNC(=O)Cn2c(-c3ccc(Cl)cc3)c(Cl)nc(NCCc3cccnc3)c2=O)cc1 [1471-24]
[2]
  IC50: 10 µM

## N=C(N)c1ccc(CNC(=O)Cn2c(-c3cccc(N)c3)c(Cl)nc(NCCN3CCCC3)c2=O)c(F)c1 [1543-37]
read-out: IC50 or % Inhibition TF-VIIa (30 µM); cells without % sign: IC50
  IC50: 1.23 µM

## Nc1cccc(-c2c(Cl)nc(NC3CCC3)c(=O)n2CC(=O)NCc2ccc(C3=NCCN3)cc2)c1 [Example 27]
[1]
  IC50: 12.5 µM

## NCc1ccc(CNC(=O)Cn2c(-c3cccc(N)c3)c(Cl)nc(NC3CCC3)c2=O)cc1 [Example 28]
[1]
  IC50: 3 µM

## O=C(Cn1c(-c2ccc(Cl)cc2)c(Cl)nc(NCc2ccccc2)c1=O)NCCc1ccncc1 [Example E-0017]
100 µM
  % Inhibition TF-VIIa (100 µM): 0%

## O=C(Cn1c(-c2ccc(Cl)cc2)c(Cl)nc(NCCc2ccccc2)c1=O)NCCc1ccncc1 [Example E-0018]
100 µM
  % Inhibition TF-VIIa (100 µM): 1%

## O=C(Cn1c(-c2ccc(Cl)cc2)c(Cl)nc(NCCc2cccc(Cl)c2)c1=O)NCCc1ccncc1 [Example E-0019]
100 µM
  % Inhibition TF-VIIa (100 µM): 0%

## O=C(Cn1c(-c2ccc(Cl)cc2)c(Cl)nc(NCCc2ccc(Cl)cc2)c1=O)NCCc1ccncc1 [Example E-0020]
100 µM
  % Inhibition TF-VIIa (100 µM): 0%

## O=C(Cn1c(-c2ccc(Cl)cc2)c(Cl)nc(NCCc2cccnc2)c1=O)NCCc1ccncc1 [Example E-0021]
100 µM
  % Inhibition TF-VIIa (100 µM): 0%

## O=C(Cn1c(-c2ccc(Cl)cc2)c(Cl)nc(NCCc2ccncc2)c1=O)NCCc1ccncc1 [Example E-0022]
100 µM
  % Inhibition TF-VIIa (100 µM): 0%

## O=C(Cn1c(-c2ccc(Cl)cc2)c(Cl)nc(NCCN2CCOCC2)c1=O)NCCc1ccncc1 [Example E-0023]
100 µM
  % Inhibition TF-VIIa (100 µM): 0%

## O=C(Cn1c(-c2ccc(Cl)cc2)c(Cl)nc(NCc2ccncc2)c1=O)NCCc1ccncc1 [Example E-0024]
100 µM
  % Inhibition TF-VIIa (100 µM): 0%

## O=C(Cn1c(-c2ccc(Cl)cc2)c(Cl)nc(NCc2ccccc2)c1=O)NCCc1ccncc1 [Example E-0025]
100 µM
  % Inhibition TF-VIIa (100 µM): 0%

## O=C(Cn1c(-c2ccc(Cl)cc2)c(Cl)nc(NCCc2ccccc2)c1=O)NCCc1ccncc1 [Example E-0026]
100 µM
  % Inhibition TF-VIIa (100 µM): 0%

## O=C(Cn1c(-c2ccc(Cl)cc2)c(Cl)nc(NCCc2ccc(Cl)cc2)c1=O)NCCc1ccncc1 [Example E-0028]
100 µM
  % Inhibition TF-VIIa (100 µM): 0%

## O=C(Cn1c(-c2ccc(Cl)cc2)c(Cl)nc(NCCc2cccnc2)c1=O)NCCc1ccncc1 [Example E-0029]
100 µM
  % Inhibition TF-VIIa (100 µM): 0%

## O=C(Cn1c(-c2ccc(Cl)cc2)c(Cl)nc(NCCc2ccncc2)c1=O)NCCc1ccncc1 [Example E-0030]
100 µM
  % Inhibition TF-VIIa (100 µM): 0%

## O=C(Cn1c(-c2ccc(Cl)cc2)c(Cl)nc(NCc2ccncc2)c1=O)NCCc1ccncc1 [Example E-0032]
100 µM
  % Inhibition TF-VIIa (100 µM): 0%

## COc1ccc(-c2c(Cl)nc(NCCc3ccccc3)c(=O)n2CC(=O)NCCc2ccncc2)cc1 [Example E-0034]
100 µM
  % Inhibition TF-VIIa (100 µM): 0%

## COc1ccc(-c2c(Cl)nc(NCCc3cccc(Cl)c3)c(=O)n2CC(=O)NCCc2ccncc2)cc1 [Example E-0035]
100 µM
  % Inhibition TF-VIIa (100 µM): 4%

## COc1ccc(-c2c(Cl)nc(NCCc3ccc(Cl)cc3)c(=O)n2CC(=O)NCCc2ccncc2)cc1 [Example E-0036]
100 µM
  % Inhibition TF-VIIa (100 µM): 0%

## O=C(Cn1c(-c2ccc(-c3ccccc3)cc2)c(Cl)nc(NCc2ccccc2)c1=O)NCCc1ccncc1 [Example E-0049]
100 µM
  % Inhibition TF-VIIa (100 µM): 2%

## O=C(Cn1c(-c2ccc(-c3ccccc3)cc2)c(Cl)nc(NCCc2ccccc2)c1=O)NCCc1ccncc1 [Example E-0050]
100 µM
  % Inhibition TF-VIIa (100 µM): 0%

## O=C(Cn1c(-c2ccc(-c3ccccc3)cc2)c(Cl)nc(NCCc2ccc(Cl)cc2)c1=O)NCCc1ccncc1 [Example E-0052]
100 µM
  % Inhibition TF-VIIa (100 µM): 0%

## O=C(Cn1c(-c2cccc(Cl)c2)c(Cl)nc(NCc2ccccc2)c1=O)NCCc1ccncc1 [Example E-0073]
100 µM
  % Inhibition TF-VIIa (100 µM): 0%

## O=C(Cn1c(-c2cccc(Cl)c2)c(Cl)nc(NCc2ccccc2)c1=O)NCCc1cccnc1 [Example E-0074]
100 µM
  % Inhibition TF-VIIa (100 µM): 0%

## O=C(Cn1c(-c2cccc(Cl)c2)c(Cl)nc(NCCc2ccccc2)c1=O)NCCc1ccncc1 [Example E-0076]
100 µM
  % Inhibition TF-VIIa (100 µM): 0%

## O=C(Cn1c(-c2cccc(Cl)c2)c(Cl)nc(NCCc2ccccc2)c1=O)NCCc1cccnc1 [Example E-0077]
100 µM
  % Inhibition TF-VIIa (100 µM): 0%

## O=C(Cn1c(-c2cccc(Cl)c2)c(Cl)nc(NCCc2cccc(Cl)c2)c1=O)NCCc1ccncc1 [Example E-0079]
100 µM
  % Inhibition TF-VIIa (100 µM): 0%

## O=C(Cn1c(-c2cccc(Cl)c2)c(Cl)nc(NCCc2cccc(Cl)c2)c1=O)NCCc1cccnc1 [Example E-0080]
100 µM
  % Inhibition TF-VIIa (100 µM): 1%

## O=C(Cn1c(-c2cccc(Cl)c2)c(Cl)nc(NCCc2ccc(Cl)cc2)c1=O)NCCc1ccncc1 [Example E-0082]
100 µM
  % Inhibition TF-VIIa (100 µM): 4%

## O=C(Cn1c(-c2cccc(Cl)c2)c(Cl)nc(NCCc2ccc(Cl)cc2)c1=O)NCCc1cccnc1 [Example E-0083]
100 µM
  % Inhibition TF-VIIa (100 µM): 2%

## O=C(Cn1c(-c2cccc(Cl)c2)c(Cl)nc(NCc2ccccc2)c1=O)NCCc1ccncc1 [Example E-0085]
100 µM
  % Inhibition TF-VIIa (100 µM): 0%

## O=C(Cn1c(-c2cccc(Cl)c2)c(Cl)nc(NCc2ccccc2)c1=O)NCCc1cccnc1 [Example E-0086]
100 µM
  % Inhibition TF-VIIa (100 µM): 0%

## O=C(Cn1c(-c2cccc(Cl)c2)c(Cl)nc(NCCc2ccccc2)c1=O)NCCc1ccncc1 [Example E-0088]
100 µM
  % Inhibition TF-VIIa (100 µM): 0%

## O=C(Cn1c(-c2cccc(Cl)c2)c(Cl)nc(NCCc2ccccc2)c1=O)NCCc1cccnc1 [Example E-0089]
100 µM
  % Inhibition TF-VIIa (100 µM): 3%

## O=C(Cn1c(-c2cccc(Cl)c2)c(Cl)nc(NCCc2cccc(Cl)c2)c1=O)NCCc1ccncc1 [Example E-0091]
100 µM
  % Inhibition TF-VIIa (100 µM): 1%

## O=C(Cn1c(-c2cccc(Cl)c2)c(Cl)nc(NCCc2cccc(Cl)c2)c1=O)NCCc1cccnc1 [Example E-0092]
100 µM
  % Inhibition TF-VIIa (100 µM): 1%

## O=C(Cn1c(-c2cccc(Cl)c2)c(Cl)nc(NCCc2ccc(Cl)cc2)c1=O)NCCc1ccncc1 [Example E-0094]
100 µM
  % Inhibition TF-VIIa (100 µM): 2%

## O=C(Cn1c(-c2cccc(Cl)c2)c(Cl)nc(NCCc2ccc(Cl)cc2)c1=O)NCCc1cccnc1 [Example E-0095]
100 µM
  % Inhibition TF-VIIa (100 µM): 2%

## COc1ccc(-c2c(Cl)nc(NCCc3cccc(Cl)c3)c(=O)n2CC(=O)NCCc2ccncc2)cc1 [Example E-0103]
100 µM
  % Inhibition TF-VIIa (100 µM): 2%

## COc1ccc(-c2c(Cl)nc(NCCc3ccc(Cl)cc3)c(=O)n2CC(=O)NCCc2ccncc2)cc1 [Example E-0106]
100 µM
  % Inhibition TF-VIIa (100 µM): 5%

## O=C(Cn1c(-c2ccc(-c3ccccc3)cc2)c(Cl)nc(NCc2ccccc2)c1=O)NCCc1ccncc1 [Example E-0109]
100 µM
  % Inhibition TF-VIIa (100 µM): 2%

## O=C(Cn1c(-c2ccc(-c3ccccc3)cc2)c(Cl)nc(NCCc2ccccc2)c1=O)NCCc1ccncc1 [Example E-0112]
100 µM
  % Inhibition TF-VIIa (100 µM): 11%

## O=C(Cn1c(-c2ccc(-c3ccccc3)cc2)c(Cl)nc(NCCc2ccc(Cl)cc2)c1=O)NCCc1ccncc1 [Example E-0118]
100 µM
  % Inhibition TF-VIIa (100 µM): 12%
